Values joined by “and” are separate entries in the source; they are usually repeats but may differ in a detail not shown here. Equal entries are not always repeated. Structures can show the parent of a compound that is named as a salt. Marks after values point to notes of the source that are not given here.
Columns and labels:
[1] = Osmolality of ketamine HCl and ketamine-Captisol complexes; type: physicochemical; settings: for Mean Osmolality: each sample run in triplicate
Experimental: Osmolality. Osmolality readings were obtained on an Advanced Instruments Advanced™ Micro Osmometer Model 3300 (Advanced Instruments, Inc. Norwood, MA, USA). Saline solutions (0.9% and 3%) were freshly prepared with sodium chloride (Fisher Scientific, Fair Lawn, NJ) and run as positive controls. Each sample was calculated as the mean from back-to-back triplicate measurements.

[2] = Forced precipitation of racemic ketamine with 2M NaOH; type: physicochemical; settings: 70 mg/mL ketamine FB equiv., 2 mL volume, 2M NaOH after pH 5.5 in 1-2 μL volumes
Experimental: The tests were conducted on a 2 mL volume. Base was added in 1-2 μL volumes.

[3] = Forced precipitation of API HCl salt and API FB-CapAcid formulation with 2M NaOH; type: physicochemical; settings: 70 mg/mL API in FB equivalents, 1 mL scale, 1 μL increments of 2M NaOH, starting pH 7.0±0.1
[4] = Theoretical vs measured osmolarities of API-Cap formulations; type: physicochemical; settings: API-Cap Formulations at 70 mg/mL freebase equivalents; for Percentage of Theoretical: measured osmolality vs calculated osmolarity
[5] = Final pH and average osmolality of API Captisol formulations and API salt solutions
[6] = Solubility of DMT, 5-MeO-DMT and Mescaline in Captisol sodium solution; type: physicochemical; settings: equimolar Captisol Sodium form in water; for Appearance after filtration / Osmolality / pH: agitated overnight; for Amine Conc.: total 10 g, agitated at room temperature overnight, after filtration
Experimental: An equimolar amount of Captisol Sodium form and 5 mL HPLC grade water were added to three 20 mL vials equipped with stir bars. Once a solution was formed, 638 mg of DMT, 700 mg of 5-MeO-DMT, and 700 mg of Mescaline were added to each vial. Each solution was diluted with water to a total solution weight of 10 g. The mixtures were agitated at room temperature overnight and analyzed.

physchem = settings: water, thermodynamic from solid
[7] = API HCl salt (70 mg/mL in FB equiv)
[8] = CapAcid-API Freebase Formulation (70 mg/mL API FB, 1.1 molar equiv CapAcid)
[9] = Captisol-API HCl salt formulation (70 mg/mL API HCl salt in FB equiv, 1.1 molar equiv Captisol in CapAcid equiv)
[10] = Captisol salt formulation with DXM HBr 15 mg/mL FB equiv
[11] = salt solution, DXM HBr 15 mg/mL FB equiv
[12] = salt solution, 5-IAI HCl 35 mg/mL FB equiv
[13] = Captisol salt formulation with nicotine Stoichiometric Fumarate salt, 70 mg/mL FB equiv
[14] = salt solution, nicotine Stoichiometric Fumarate salt, 70 mg/mL FB equiv
[15] = Captisol salt formulation with Sumatriptan stoichiometric succinate salt, 70 mg/mL FB equiv
[16] = salt solution, Sumatriptan stoichiometric succinate salt, 70 mg/mL FB equiv

Structure (SMILES) | Measured Osmolality [4] | Osmolality [5, 7] | pH [5, 7] | Osmolality [5, 8] | pH [5, 8] | Osmolality [5, 9] | pH [5, 9] | also measured
CNC1(c2ccccc2Cl)CCCCC1=O (racemic) [Ketamine HCl] | – | – | – | – | – | – | – | Mean Osmolality ([1]; 75 mg/mL): 533.3 mOsm; Mean Osmolality ([1]; 100 mg/mL): 703.0 mOsm; Average osmolality ± SEM ([1]; [Ketamine] 70 mg/mL FB equiv., HCl): 527 ± 2.69 mOsm/kg and 527.0 ± 2.7 mOsm/kg; Average osmolality ± SEM ([1]; [Ketamine] 96 mg/mL FB equiv., HCl): 704.4 ± 9.95 mOsm/kg and 704.4 ± 9.9 mOsm/kg; Average osmolality ± SEM ([1]; [Ketamine] 100 mg/mL FB equiv.): 736.83 ± 3.7 mOsm/kg; Mean Volume Base to precip ± SEM [2]: 4 ± 0 µL
CNC(C)Cc1cccc(F)c1.Cl (stereo not shown) [3-FMA HCl] | – | – | – | – | – | – | – | Volume of Base need for Precipitation [3]: 37 µL
CNC(C)Cc1ccc2occc2c1.Cl (stereo not shown) [5-MAPB HCl] | – | – | – | – | – | – | – | Volume of Base need for Precipitation [3]: 47* μL
CNC1(c2ccccc2)CCCCC1=O (stereo not shown) [DCK, 2-(methylamino)-2-phenylcyclohexan-1-one] | 310 mOsmol/L | 601 mOsm/kg | 4.73 | 310 mOsm/kg | 7.00 | 1,086 mOsm/kg | 6.98 | Percentage of Theoretical [4]: 77.1%
CN(C)CCc1c[nH]c2ccccc12 [DMT, N,N-Dimethyltryptamine] | – | – | – | – | – | – | – | Appearance after filtration [6]: Clear/colorless; Osmolality [6]: 300 mOsm/kg; pH [6]: 11.10; Amine Conc. [6]: 13.6 mg/mi
COc1ccc2c(c1)[C@]13CCCC[C@@H]1[C@H](C2)N(C)CC3 [DXM HBr hydrate, dextromethorphan HBr hydrate] | – | – | – | – | – | – | – | solubility at 48 h (physchem): 16.4 mg/mL
COc1ccc2c(c1)[C@]13CCCC[C@@H]1[C@H](C2)N(C)CC3 [DXM, dextromethorphan, reference compound] | 113 mOsmol/L | – | – | 113 mOsm/kg | 6.95 | – | – | Osmolality [5, 10]: 145* mOsm/kg; pH [5, 10]: 7.05; Osmolality [5, 11]: 91 mOsm/kg; pH [5, 11]: 5.47
CNC1(c2ccccc2F)CCCCC1=O (stereo not shown) [Example 2-F-DCK, 2-(2-fluorophenyl)-2-(methylamino)cyclohexan-1-one] | 373 mOsmol/L | 560 mOsm/kg | 4.27 | 373 mOsm/kg | 6.97 | 1,046 mOsm/kg | – | Percentage of Theoretical [4]: 100.9%
CNC(C)Cc1cccc(F)c1 (stereo not shown) [Example 3-FMA, 1-(3-fluorophenyl)-N-methylpropan-2-amine] | 337 mOsmol/L | 706 mOsm/kg | 5.17 | 337 mOsm/kg | 6.78 | 1,388 mOsm/kg | 7.01 | –
CNC(C)C(=O)c1cccc(C)c1 (stereo not shown) [Example 3-MMC, 2-(methylamino)-1-(m-tolyl)propan-1-one] | 312 mOsmol/L | 636 mOsm/kg | 4.76 | 312 mOsm/kg | 6.99 | 1,190* mOsm/kg | 6.98 | –
NC1Cc2ccc(I)cc2C1 (stereo not shown) [Example 5-IAI, 5-iodo-2,3-dihydro-JH-inden-2-amine] | 119 mOsmol/L | – | – | 119 mOsm/kg | 6.97 | 621 mOsm/kg | 6.98 | Osmolality [5, 12]: 221 mOsm/kg; pH [5, 12]: 4.62
CNC(C)Cc1ccc2occc2c1 (stereo not shown) [Example 5-MAPB, 1-(benzofuran-5-yl)-N-methylpropan-2-amine] | 215 mOsmol/L | 556 mOsm/kg | 3.16 | 215 mOsm/kg | 7.10 | 1,004 mOsm/kg | 7.15 | –
COc1ccc2[nH]cc(CCN(C)C)c2c1 [Example 5-MeO-DMT, 5-methoxy-N,N-dimethyltryptamine] | – | – | – | – | – | – | – | Appearance after filtration [6]: Clear/faint yellow; Osmolality [6]: 316 mOsm/kg; pH [6]: 11.03; Amine Conc. [6]: 14.6 mg/mi
CNC1(c2ccccc2Cl)CCCCC1=O (stereo not shown) [Ketamine] | 291 mOsmol/L | – | – | – | – | – | – | Percentage of Theoretical [4]: 84.6%
CCN(CC)CC(=O)Nc1c(C)cccc1C [Lidocaine HCl, reference compound] | – | – | – | – | – | – | – | Volume of Base need for Precipitation [3]: 5 µL
CCN(CC)CC(=O)Nc1c(C)cccc1C [Lidocaine, reference compound] | 304 mOsmol/L | 543 mOsm/kg | 4.60 | 304 mOsm/kg | 6.99 | 844 mOsm/kg | 6.95 | Percentage of Theoretical [4]: 87.0%
Cc1cccc(C(=O)C(C)N(C)C)c1.Cl (stereo not shown) [Me-3-MMC HCl, Me-3-MMC hydrochloride] | – | – | – | – | – | – | – | Volume of Base need for Precipitation [3]: 6.5* μL
Cc1cccc(C(=O)C(C)N(C)C)c1 (stereo not shown) [Me-3-MMC, 2-(dimethylamino)-1-(m-tolyl)propan-1-one] | 321 mOsmol/L | 578 mOsm/kg | 4.44 | 321 mOsm/kg | 6.95 | 1,151 mOsm/kg | 7.00 | –
COc1cc(CCN)cc(OC)c1OC [Mescaline] | – | – | – | – | – | – | – | Appearance after filtration [6]: Clear/light yellow; Osmolality [6]: 570 mOsm/kg; pH [6]: 11.69; Amine Conc. [6]: 77.7 mg/mi
CN1CC[C@]23c4c5ccc(O)c4O[C@H]2[C@@H](O)C=C[C@H]3[C@H]1C5 [Morphine, reference compound] | 166 mOsmol/L | – | – | 166 mOsm/kg | 6.09 | – | – | Percentage of Theoretical [4]: 57.9%
CN1CCC[C@H]1c1cccnc1 [Nicotine, S-(−)-nicotine, reference compound] | 555 mOsmol/L | – | – | 555* mOsm/kg | 7.02* | – | – | Percentage of Theoretical [4]: 110.1%; Osmolality [5, 13]: 2,006 mOsm/kg; pH [5, 13]: 6.97; Osmolality [5, 14]: 682 mOsm/kg; pH [5, 14]: 3.80
CNS(=O)(=O)Cc1ccc2[nH]cc(CCN(C)C)c2c1 [Sumatriptan, 1-(3-(2-(dimethylamino)ethyl)-1H-indol-5-yl)-N-methylmethanesulfonamide, reference compound] | 109 mOsmol/L | – | – | 109 mOsm/kg | 7.06 | – | – | Osmolality [5, 15]: 858 mOsm/kg; pH [5, 15]: 6.99; Osmolality [5, 16]: 293 mOsm/kg; pH [5, 16]: 4.57

— patent US12472201B2, “Complexing agent salt formulations of pharmaceutical compounds” (Bexson Biomedical, Inc., priority 2020, dated 2025)
